Laboratory results taken from PubChem BioAssay AID1996.
Converted amounts (≈) assume the structure as drawn.

Conditions: buffer; pH 7.4; 200.0 µM

SMILES	solubility kinetic
Cc1ccc(/C(O)=C2\C(=O)C(=O)N(CC(C)O)C2c2ccccn2)cc1 (stereo not given)	> 52.9 µg/mL
O=C(/C=C/c1ccc2c(c1)OCO2)NCc1ccncc1	42.1 µg/mL (≈ 149 µM)
Cc1noc(C)c1COC(=O)c1csc2c1CCC(C)C2 (stereo not given)	1.4 µg/mL (≈ 4.58 µM)
Cc1nc(-c2ccccc2Cl)sc1C(=O)/C=C/N(C)C	10.8 µg/mL (≈ 35.2 µM)
C=CCNc1oc(-c2cccs2)nc1S(=O)(=O)c1ccccc1	16.8 µg/mL (≈ 48.5 µM)
CCN(C(=O)Cn1c(=O)oc2ccccc21)c1cccc(C)c1	> 46.6 µg/mL
Cc1cccc(C)c1NC(=O)C1CCN(S(C)(=O)=O)CC1	> 46.6 µg/mL
COC(=O)c1ccc(S(=O)(=O)N2CCCN(Cc3ccc(F)cc3)CC2)n1C	> 61.4 µg/mL
FC(F)(F)c1ccccc1NC1=NCCCS1	> 39 µg/mL
COc1ccc(S(=O)(=O)N(C)CC(=O)NCCN2CCOCC2)cc1	51.5 µg/mL (≈ 139 µM)
Cc1nn(CC(=O)NC(C)C)c(C)c1[N+](=O)[O-]	> 36 µg/mL
O=C(CN1CCCCC1)N1CCN(c2ccccc2)CC1	> 43.1 µg/mL
COc1ccccc1NCc1cc(=O)oc2c(C)c(O)ccc12	4.4 µg/mL (≈ 14.1 µM)
CC(C)(C)NC(=O)C(=O)NCc1ccccn1	> 35.3 µg/mL
CC1(C)Cc2ccccc2-c2nc3n(c(=O)c21)CCCS3	0.9 µg/mL (≈ 3.02 µM)
COc1cc(C(=O)O/N=C(\N)c2cccc([N+](=O)[O-])c2)cc(OC)c1OC	0.3 µg/mL (≈ 0.799 µM)
COc1cccc(N2CC(C)Cn3c2nc2c3c(=O)[nH]c(=O)n2C)c1 (stereo not given)	22.7 µg/mL (≈ 66.5 µM)
O=C(O)c1ccccc1C(=O)Nc1ccc(Oc2cccc(C(F)(F)F)c2)nc1	60.2 µg/mL (≈ 150 µM)
CCOC(=O)c1c2c3c(cccc3n(C)c1=O)C(=O)c1ccccc1-2	2.6 µg/mL (≈ 7.8 µM)
CC(=O)c1c(C)[nH]c(C(=O)OCc2cccc(C)c2)c1C	4.2 µg/mL (≈ 14.7 µM)
CCNC(=S)N1CCC(NC(=O)c2ccco2)CC1	> 42.2 µg/mL
CCSC1=C(C#N)C(c2ccc(C)o2)CC(=O)N1 (stereo not given)	> 39.3 µg/mL
O=C(NCc1ccc2c(c1)OCO2)Nc1ccc(Cl)cc1	0.8 µg/mL (≈ 2.63 µM)
O=C(NC1=NCCS1)c1ccc(F)c(S(=O)(=O)N2CCOCC2)c1	> 56 µg/mL

SMILES	solubility kinetic
C/C(=C\c1ccccc1)CN1CCN(C)CC1	18.1 µg/mL (≈ 78.6 µM)
CC(C)CNCC1OCc2ccccc2CO1.Cl	> 40.8 µg/mL
CC1CCC2(CC1)NC(=O)N(CC(=O)Nc1cc(S(=O)(=O)N3CCCC3)ccc1Cl)C2=O (stereo not given)	1.4 µg/mL (≈ 2.9 µM)
COc1cccc(NC(=O)Cn2cc(C=O)c3ccccc32)c1	0.5 µg/mL (≈ 1.62 µM)
c1ccc(Cc2nc3ccccc3[nH]2)cc1	> 31.2 µg/mL
Cc1ccc(NC(=O)N2CCc3ccccc3C2)cc1C	0.9 µg/mL (≈ 3.21 µM)
COC(=O)Cn1c(C(O)c2ccccc2)nc2ccccc21 (stereo not given)	> 44.4 µg/mL
CC(=O)c1ccc(NC(=O)CNC2CCCCC2)cc1.Cl	38.4 µg/mL
Cc1ccsc1C(=O)N1CCN(c2ccccn2)CC1	> 43.1 µg/mL
Cc1cccc(OC(C)C(=O)NC2CCS(=O)(=O)C2)c1C (stereo not given)	46.4 µg/mL (≈ 149 µM)
CCCCN=C1CC(C)(C)CC(=O)/C1=C(/O)CCC	> 39.8 µg/mL
O=C(NCc1ccccc1Cl)C1CCCO1 (stereo not given)	32.1 µg/mL (≈ 134 µM)
CN1C(c2ccccc2)CC(=NO)CC1c1ccccc1 (stereo not given)	1.4 µg/mL (≈ 4.99 µM)
S=C(NCCCc1ccccc1)NC1CCCCC1	22.5 µg/mL (≈ 81.4 µM)
c1csc(-c2nc(-c3ccc(-c4ccon4)s3)no2)c1	0.5 µg/mL (≈ 1.66 µM)
CC(C)(C)n1cnc2cc(NC(=O)c3ccc(Cl)cc3)ccc21	33.4 µg/mL (≈ 102 µM)
O=C1NC(=Nc2ccccc2Br)SC1(CO)CO	> 49.7 µg/mL
COc1ccc(C)cc1NC(=O)Nc1ccccc1SC	1.3 µg/mL (≈ 4.3 µM)
O=C(/C=C/Nc1nccs1)C(F)(F)Cl	33.6 µg/mL (≈ 141 µM)
COc1ccccc1C(=O)Nc1ccccc1N1CCCCC1	1 µg/mL (≈ 3.22 µM)
COc1ccccc1CC(=O)N1CCN(c2ccccc2F)CC1	46.8 µg/mL (≈ 143 µM)
COc1ccc(C(=O)N2CCN(c3ccc(C(C)=O)cc3)CC2)cc1S(=O)(=O)N1CCCC1	> 70.7 µg/mL
CCC(=O)Nc1ccc(OCC2CCCO2)cc1 (stereo not given)	35.6 µg/mL (≈ 143 µM)
CCCc1cc(=O)oc2c(CN3CCN(C)CC3)c(O)ccc12	45.2 µg/mL (≈ 143 µM)

SMILES	solubility kinetic
COc1ccc(OC)c(N(CC(=O)N2CCOCC2)S(C)(=O)=O)c1	> 53.8 µg/mL
Cc1ccc(C2=NOC3(CC(=O)N(c4ccc(C)cc4)C3=O)C2)cc1 (stereo not given)	12.6 µg/mL (≈ 37.7 µM)
Cc1c(-c2ccccc2)nc(N)c(C#N)c1-c1cccnc1	5 µg/mL (≈ 17.5 µM)
O=C1NC(=O)C(c2ccccc2)(c2ccc(O)cc2)N1 (stereo not given)	> 40.2 µg/mL
Cc1nc(Cl)c(C#N)c2c1CCCC2	17.5 µg/mL (≈ 84.7 µM)
CCOC(Cn1cc(C)c(=O)[nH]c1=O)OCC	> 36.3 µg/mL
C=C(C)c1cccc(C(C)(C)NC(=O)N2CCC(C(N)=O)CC2)c1	> 49.4 µg/mL
Cn1c(=O)c2c(ncn2CCC(=O)N/N=C/c2ccncc2)n(C)c1=O	> 53.3 µg/mL
CCOC(=O)N1CCN(C(=S)NC(=O)C2CCCC2)CC1	> 47 µg/mL
CCOc1ccccc1NC(=O)Cc1cccs1	33.6 µg/mL (≈ 129 µM)
Oc1cccc(/C=N/NC(=S)Nc2cccnc2)c1O	> 43.2 µg/mL
O=C1c2ccsc2SCCN1Cc1c(F)cccc1Cl	44.4 µg/mL (≈ 135 µM)
CCOC(=O)/C=C/C(=O)Nc1ccc(Oc2ccccc2)cc1	3.8 µg/mL (≈ 12.2 µM)
CC1CC(C)(C)NC(=S)N1CCC(=O)NCc1ccc(F)cc1 (stereo not given)	> 50.6 µg/mL
Cc1ccc(OCCNC(=O)CCc2nc3sc4c(c3c(=O)[nH]2)CCCC4)cc1	5.6 µg/mL (≈ 13.6 µM)
O=C(Nc1ccc(Cl)c(S(=O)(=O)N2CCOCC2)c1)c1cccs1	3.2 µg/mL (≈ 8.27 µM)
CC(C)NC(=O)CSc1ncccc1-c1nc2ccccc2[nH]1	46.9 µg/mL (≈ 144 µM)
Clc1ccc(C2=CSC3=NCCN23)c(Cl)c1.[Br-]	> 52.7 µg/mL
CC1CCCCC1NC(=O)c1cc(=O)[nH]c2ccccc12 (stereo not given)	3.6 µg/mL (≈ 12.7 µM)
O=C(COC(=O)c1ccccc1OCc1ccccc1Cl)NCC1CCCO1 (stereo not given)	> 60.6 µg/mL
CCOc1ccc(NC(=S)N2c3ccccc3CC2C)cc1 (stereo not given)	4.4 µg/mL (≈ 14.1 µM)
CC1=CC(=C(C#N)C#N)c2ccccc2N1C	2.7 µg/mL (≈ 12.2 µM)
Cc1onc(-c2ccccc2)c1C(=O)N1CCCCCC1	> 42.7 µg/mL
CC(C)c1ccc(OCC(=O)NC(C)c2ccccc2)cc1 (stereo not given)	16.5 µg/mL (≈ 55.5 µM)

SMILES	solubility kinetic
O=C(CCCOc1ccc(Cl)cc1)NCCc1ccccc1	1.5 µg/mL (≈ 4.72 µM)
CC(C)(C)NC(=O)NC(=O)COC(=O)CNC(=O)C1CCCCC1	40.9 µg/mL (≈ 120 µM)
O=C(NCCCNC(=O)c1cnccn1)c1ccc(Cl)c(Cl)c1	41.4 µg/mL (≈ 117 µM)
CC(C)c1ccc(OCC(=O)NC2CCCC2)cc1	30.2 µg/mL (≈ 116 µM)
CN(C(=O)c1ccccc1)c1nccnc1C#N	> 35.7 µg/mL
Cc1cc(/C=C(\C#N)C(=O)Nc2ccccc2F)c(C)[nH]1	0.8 µg/mL (≈ 2.82 µM)
Cc1ccc(CN2CC(C(=O)Nc3ncccc3C)CC2=O)cc1 (stereo not given)	> 48.5 µg/mL
Cc1cc(F)c(F)c(C(=O)N2CCCCC2C)c1Cl (stereo not given)	34.6 µg/mL (≈ 120 µM)
COc1ccc(-n2c(C)nc(N)c2C(=O)c2ccccc2)cc1	19.8 µg/mL (≈ 64.4 µM)
Cc1ccc(N2CC(O)Cn3c2nc2c3c(=O)n(C)c(=O)n2C)cc1 (stereo not given)	24.5 µg/mL (≈ 71.8 µM)
Cc1cc(N2CC(C)OC(C)C2)n2cc(-c3ccccc3)nc2n1 (stereo not given)	15.4 µg/mL (≈ 47.8 µM)
O=C(NC1CCN(Cc2ccccc2)CC1)c1ccccc1Cl	35.7 µg/mL (≈ 109 µM)
CC1Cc2ccccc2N1S(=O)(=O)c1cnc(Cl)c(Br)c1 (stereo not given)	< 0.4 µg/mL
O=[N+]([O-])c1ccc(N2CCc3ccccc3C2)nc1	7.6 µg/mL (≈ 29.8 µM)
Cc1[nH]c2ccccc2c1C(=O)CN1CC(C)CC(C)C1 (stereo not given)	> 42.7 µg/mL
COc1ccc(CNC(=O)N[C@H](C(=O)O)C(C)C)cc1OC	> 46.6 µg/mL
O=c1[nH]c2ccccc2n2c(=S)[nH]nc12	> 32.7 µg/mL
Cc1ccc(C)c(C(=O)CN2Cc3ccccc3C2=O)c1	6.1 µg/mL (≈ 21.8 µM)
Cc1c(C(=O)O)sc2c1c(=O)n(Cc1ccccc1)c(=O)n2C	> 49.6 µg/mL
COc1ccc(S(=O)(=O)NCCc2ccccc2)c2cccnc12	> 51.4 µg/mL
NS(=O)(=O)c1ccc(NC(=O)Nc2ccc(S(N)(=O)=O)cc2)cc1	9.7 µg/mL (≈ 26.2 µM)
CCOC(=O)c1cnc2ccccc2c1NCc1ccco1	11.3 µg/mL (≈ 38.1 µM)
O=c1[nH]c(NCCO)c(N=Cc2ccccc2)c(=O)[nH]1	> 41.1 µg/mL
COc1ccccc1C(=O)Nc1ccc(NC(=O)C2CCCCC2)nc1	0.9 µg/mL (≈ 2.55 µM)

SMILES	solubility kinetic
Brc1ccc(CN2CCCCCC2)cc1	12.5 µg/mL (≈ 46.6 µM)
CCC(C)NC(=O)[C@@H]1CSC2c3ccccc3C(=O)N21 (stereo not given in full)	> 43.6 µg/mL
Cc1ccc2[nH]c(C(=O)Nc3ccc(F)cc3)cc2c1	< 0.3 µg/mL
COc1ccc(CNC(=O)COC(=O)CCc2c[nH]c3ccccc23)cc1	44.4 µg/mL (≈ 121 µM)
O=C(NC1CCN(C(=S)Nc2ccc(Cl)cc2)CC1)c1ccco1	> 54.6 µg/mL
CC(=O)Nc1ccc(OCC(=O)NCc2ccc(C)cc2)cc1	> 46.9 µg/mL
O=C(CN1C(=O)NC2(CCc3ccccc32)C1=O)c1ccccc1 (stereo not given)	40.1 µg/mL (≈ 125 µM)
Br.COc1cccc(C(=O)CSc2nccn2C)c1	> 51.5 µg/mL
CN1CCN(C(=O)NCC23CC4CC(CC(C4)C2)C3)CC1	> 43.7 µg/mL
Cc1cc(Oc2ccc(N)cn2)ccc1Cl	30.8 µg/mL (≈ 131 µM)
CC(C)NC(=O)Cn1cc(C(=O)c2ccccc2)c2ccccc21	1.7 µg/mL (≈ 5.31 µM)
N#Cc1c(CSCC(=O)O)cc(=O)n2c1[nH]c1ccccc12	46.9 µg/mL (≈ 150 µM)
Cn1c(CNc2ccc(F)cc2)nc2ccccc21	> 38.3 µg/mL
CCN(CC(=O)NC1CCS(=O)(=O)C1)c1ccc(S(=O)(=O)N(CC)CC)cc1[N+](=O)[O-] (stereo not given)	> 71.5 µg/mL
COCCNc1nc(N)c([N+](=O)[O-])c(NC2CCCCC2)n1	7.2 µg/mL (≈ 23.2 µM)
COc1ccc(C(=O)Nc2ccc(C3CC3(Cl)Cl)cc2)cc1 (stereo not given)	< 0.7 µg/mL
Cc1cc(C)c(NC(=O)COC(=O)C2CCC2)c(Cl)c1	42.2 µg/mL (≈ 143 µM)
CC(C)c1ccc(-c2c(NCCc3ccccc3)c(=O)c2=O)cc1	0.9 µg/mL (≈ 2.82 µM)
CSc1ccc(CNCCN2CCOCC2)cc1.Cl	> 50.9 µg/mL
Cc1ccccc1NC(=S)N(Cc1ccccc1)Cc1cccs1	0.7 µg/mL (≈ 1.99 µM)
Br.CN(C)C1=NCC(CSC(=N)N)S1 (stereo not given)	32.5 µg/mL
CSc1ccc(CNCC2CCCO2)cc1.Cl (stereo not given)	37.1 µg/mL
Cc1ccc(-c2nc3ccccc3c(=O)n2-c2cccc(C)n2)cc1	> 49.1 µg/mL
CCc1ccc(OCCCC(=O)Nc2cccc(C(=O)O)c2)cc1	> 49.1 µg/mL
